Data reported in publication PMC6152321, “High-Resolution Inhibition Profiling Combined with HPLC-HRMS-SPE-NMR for Identification of PTP1B Inhibitors from Vietnamese Plants” (Molecules : A Journal of Synthetic Chemistry and Natural …, 2017).

Columns and labels:
[1] = target: T1, Recombinant human protein tyrosine phosphatase 1B (PTP1B) (Homo sapiens, UniProt P18031); experiment: In vitro PTP1B inhibition assay (pNPP hydrolysis, absorbance at 405 nm); type: biochemical; conditions: for IC50: isolated compounds, mean ± SD, n = 3
T1 construct: purchased Enzo Life Sciences Inc. BML-SE332-0050
T1 sequence (P18031 1-322 limits assumed): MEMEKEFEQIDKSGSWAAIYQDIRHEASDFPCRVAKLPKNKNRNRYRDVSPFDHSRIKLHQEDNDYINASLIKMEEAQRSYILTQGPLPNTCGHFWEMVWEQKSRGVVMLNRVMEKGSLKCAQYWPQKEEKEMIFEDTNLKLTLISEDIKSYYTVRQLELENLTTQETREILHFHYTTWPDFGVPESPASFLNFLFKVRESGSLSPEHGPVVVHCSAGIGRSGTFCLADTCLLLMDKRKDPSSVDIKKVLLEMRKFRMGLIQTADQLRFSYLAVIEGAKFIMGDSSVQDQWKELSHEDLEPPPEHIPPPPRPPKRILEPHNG
Method: (§1) Based on the method described by Tahtah et al., the PTP1B inhibition assay was performed at 25 °C using a two-component buffer, containing 50 mM Tris, 50 mM bis-Tris and 100 mM NaCl, adjusted to pH 7.0 with acetic acid. The final reaction volume was 180 µL, including 18 µL test sample dissolved in DMSO, 52 µL of buffer with 3.46 mM EDTA (final well concentrations 10% DMSO and 1 mM EDTA), and 60 µL of buffer with 1.5 mM pNPP and 6 mM DTT (final well concentrations 0.5 mM pNPP and 2 mM DTT). After preincubation at 25 °C for 10 min, the reaction was started by addition of 50 µL of 0.001 µg/µL PTP1B stock solution (final well concentration: 0.05 µg/well). The hydrolysis rate of pNPP to release p-nitrophenol was determined by measuring the absorbance at 405 nm every 30 s for 10 min. Preincubation and absorbance measurements were performed with a Multiscan FC microplate photometer with a built-in incubator (Thermo Scientific, Waltham, MA, USA) coupled to SkanIt version 2.5.1 software for data acquisition. The PTP1B inhibitory activity was expressed as percentage inhibition and was calculated using the following formula: % inhibition = (Slopeblank − Slopesample)/Slopeblank × 100
RK682 was used as a positive control and all measurements were performed in triplicate. Dose-response curves and IC50 values were obtained using GraFit version 5 (Erithacus Software Ltd., Horley, UK).

[2] = target: T1, Recombinant human protein tyrosine phosphatase 1B (PTP1B); experiment: Kinetics of PTP1B inhibition (Lineweaver-Burk plots, Michaelis-Menten fit); type: biochemical; conditions: for Mode of Inhibition: from Lineweaver-Burk plots; for Ki: pNPP 0.125-4.0 mM, mean ± SD, n = 3
Method: as §1
Enzyme kinetics of isolated PTP1B inhibitors was measured in triplicate using the standard assay conditions described above. Reactions were carried out with increasing concentrations of pNPP (0.125, 0.25, 0.5, 1.0, 2.0 and 4.0 mM) as substrate in the absence and presence of test samples (4 concentrations). The mode of inhibition was determined graphically from the Lineweaver-Burk plots. Kinetic parameters were calculated by fitting the data to the Michaelis–Menten equation using non-linear regression analysis (GraphPad Prism 7.0, GraphPad Software Inc., La Jolla, CA, USA).

PTP1B = conditions: cited from earlier work; for IC50: read-out: IC50 against PTP1B

Row | IC50 [1] | Mode of Inhibition [2] | Ki [2] | IC50 of RK682 ([1]; positive control in crude extract screening) | Compound | PTP1B inhibition at 25 µM (PTP1B; concentration 25 µM) | IC50 (PTP1B)
1 | 22.7 ± 1.7 µM | Non-competitive | 21.3 ± 2.8 µM | – | CC1(C)C=Cc2cc(-c3coc4cc(O)cc(O)c4c3=O)ccc2O1 [Compound 1, isoderrone] | 78% | –
2 | 21.2 ± 3.8 µM | Non-competitive | 14.3 ± 2 µM | – | CC1(C)C=Cc2c(cc3occ(-c4ccc(O)cc4)c(=O)c3c2O)O1 [Compound 3, alpinumisoflavone] | – | 37.52 ± 0.31 µM
3 | 2.5 ± 0.2 µM | Non-competitive | 3 ± 0.5 µM | – | CC(C)=C[C@@H]1C[C@](C)(/C=C/c2cc(-c3coc4cc(O)cc(O)c4c3=O)ccc2O)Oc2ccc(-c3coc4cc(O)cc(O)c4c3=O)cc21 [Compound 4, mucusisoflavone B] | – | –

Second part, the molecule before the results:

Row | Compound | IC50 [1] | Mode of Inhibition [2] | Ki [2] | IC50 of RK682 ([1]; positive control in crude extract screening) | PTP1B inhibition at 25 µM (PTP1B; concentration 25 µM) | IC50 (PTP1B)
4 | CC1(C)C=Cc2c(cc(O)c3c(=O)c(-c4ccc(O)cc4)coc23)O1 [Compound 2, derrone] | 12.6 ± 1.6 µM | Non-competitive | 7.9 ± 1.9 µM | – | – | 20.63 ± 0.17 µM
5 | CCCCCCCCCCCCCCCC(=O)C1=C(O)C(CO)OC1=O (centres unmarked) [RK682, reference compound] | 10.4 ± 1.6 µM | – | – | 3.8 ± 0.6 µg/mL | – | –
